Measured values from ChEMBL document CHEMBL5727528, “Benzenesulfonamide compounds, method for synthesizing same, and use thereof in medicine and cosmetics” (2020).
pIC50: −log10 of the molar value.

Target: T1, Interstitial collagenase (Homo sapiens, UniProt P03956)
T1 sequence (P03956 whole entry): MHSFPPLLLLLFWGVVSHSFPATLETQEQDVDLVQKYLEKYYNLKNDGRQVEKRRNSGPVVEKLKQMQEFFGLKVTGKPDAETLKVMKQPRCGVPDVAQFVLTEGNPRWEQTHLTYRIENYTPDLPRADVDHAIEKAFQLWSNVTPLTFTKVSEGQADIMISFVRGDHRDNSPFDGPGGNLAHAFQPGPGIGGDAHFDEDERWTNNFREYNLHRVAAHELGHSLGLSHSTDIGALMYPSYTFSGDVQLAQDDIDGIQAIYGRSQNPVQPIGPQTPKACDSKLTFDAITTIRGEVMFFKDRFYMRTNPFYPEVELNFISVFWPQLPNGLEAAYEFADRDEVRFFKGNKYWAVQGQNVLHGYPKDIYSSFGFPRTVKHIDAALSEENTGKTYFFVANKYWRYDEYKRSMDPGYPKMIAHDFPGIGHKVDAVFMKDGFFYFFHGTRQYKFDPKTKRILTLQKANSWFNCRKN

Structure (SMILES): COCCN(C1(C(=O)NO)CN(C(=O)C(C)C)C1)S(=O)(=O)c1ccc(OCc2cc(C)nc3ccccc23)cc1
- pIC50: < 5.00
